For the assay, the target named is T1, C. reinhardtii nitrite reductase (Chlamydomonas reinhardtii, UniProt Q9ZR67).
T1 sequence (Q9ZR67 29-589): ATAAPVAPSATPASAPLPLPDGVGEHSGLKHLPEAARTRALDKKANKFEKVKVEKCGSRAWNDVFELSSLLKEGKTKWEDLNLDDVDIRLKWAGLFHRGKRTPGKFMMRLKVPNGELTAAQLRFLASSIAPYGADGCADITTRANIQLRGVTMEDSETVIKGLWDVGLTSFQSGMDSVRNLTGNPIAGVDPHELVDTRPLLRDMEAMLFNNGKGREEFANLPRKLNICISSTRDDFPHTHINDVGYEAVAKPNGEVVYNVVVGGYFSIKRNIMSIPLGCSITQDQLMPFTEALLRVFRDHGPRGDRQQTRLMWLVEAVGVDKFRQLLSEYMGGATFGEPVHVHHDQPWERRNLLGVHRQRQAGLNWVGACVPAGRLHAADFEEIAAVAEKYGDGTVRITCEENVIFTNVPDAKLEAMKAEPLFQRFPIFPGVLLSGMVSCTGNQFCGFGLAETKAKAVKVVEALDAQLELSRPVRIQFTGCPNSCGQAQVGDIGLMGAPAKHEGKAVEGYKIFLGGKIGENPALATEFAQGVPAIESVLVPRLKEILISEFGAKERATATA
Description: spectral perturbation titration. The format is binding.

One compound from article PMC2833264 (Photosynthesis research, 2009) can be followed below.

In general, Kd refers to a measure of binding affinity in units of concentration.

`O=NO` [nitrite] yielded a Kd of 50 µM.
